In patent US20240307351A1, “AGENT FOR ANTI-AGING OR FOR CELLULAR REJUVENATION” (TOHOKU UNIVERSITY, priority 2022, published 2024):

Experiments:
Assay type in all cases: in vivo, mouse
FABP4 Gene = test: Quantitative PCR of FABP4 Gene in brown adipocytes of Ndufs4−/− mice; conditions: 10 mg/day per kg, 50 days, vs CMC administration group
Protocol: Compound #5 was administered to NDUFS4 homozygous knockout mice (Ndufs4−/−mice) (4 weeks old) at a dose of 10 mg/day per kg of mouse weight for 50 days ([Compound #5 administration group]).
In addition, CMC (carboxymethylcellulose) was administered to NDUFS4 homozygous knockout mice (Ndufs4−/−mice) at a dose of 10 mg/day per kg of mouse weight for 50 days ([CMC administration group; Control group]).
Brown adipocytes were collected from the mice of [Compound #5 administration group] and [CMC administration group]. Total RNA was extracted from the brown adipocytes, and cDNA was prepared therefrom and used for measurement of mRNA expression level. The measurement was performed by a quantitative PCR method. The expression level of mRNA was determined with a relative ratio to β-actin used as an internal standard. As primers and probes, the following commercially available products (manufactured by Thermo Fisher Scientific Inc., and the like) were used. • Mouse Acts (actin beta, β-actin) Mm02619580_g1, Cat #4331182 • Mouse Ucp1 (uncoupling protein 1), Mm00494069_m1, Cat #4331182 • Mouse Pparg (PPARγ, peroxisome proliferator activated receptor gamma), Mm00440945_m1, Cat #4331182p • Mouse Fabp4 (fatty acid binding protein 4), Mm00445880_m1, Cat #4331182

[1] = test system: C57BL6 mice (12 weeks old); test: Treadmill running test of young mice; conditions: oral, 2 months; for decrease in the running time on a treadmill: young C57BL6 mice (12 weeks old); for time to exhaustion: young C57BL6 mice, compared to Vehicle group
Protocol: (§1) Water-suspended Compound #5 was orally administered to C57BL6 mice (12 weeks old) at a dose of 50 mg/kg/day per kg of mouse weight for 2 months ([MA5 high dose addition group], n=5).
Water-suspended Compound #5 was orally administered to C57BL6 mice (12 weeks old) at a dose of 10 mg/kg/day per kg of mouse weight for 2 months ([MA5 low dose addition group], n=5).
In addition, water was orally administered to C57BL6 mice (12 weeks old) for 2 months ([Vehicle group], n=5).

[2] = test system: liver cells of young mice; test: RNA-Seq and ChIP-Atlas analysis of liver cells of young mice; conditions: oral, 50 mg/kg/day, 2 months, Table 3
Protocol: Water-suspended Compound #5 was orally administered to C57BL6 mice (12 weeks old) at a dose of 50 mg/kg/day per kg of mouse weight for 2 months ([MA5 addition group], n=5). After 2 months of oral administration, the mice were 20 weeks old.
In addition, water was orally administered to C57BL6 mice (12 weeks old) for 2 months ([Vehicle group], n=5). After 2 months of oral administration, the mice were 20 weeks old.
(§2) RNA sequencing (RNA-Seq) analysis was performed on the liver cells of young mice in [MA5 addition group] and [Vehicle group] to identify genes whose expression levels changed (increased or decreased) in [MA5 addition group] as compared with [Vehicle group]. Using the results of these gene names, integrated analysis with ChIP-Atlas was performed to investigate transcription factors possibly related to these genes.

liver cells of aged mice = test: RNA-Seq and ChIP-Atlas analysis of liver cells of aged mice; conditions: oral, 50 mg/kg/day, 2 months, Table 4
Protocol: Water-suspended Compound #5 was orally administered to C57BL6 mice (92 weeks old) at a dose of 50 mg/kg/day per kg of mouse weight for 2 months ([MA5 addition group], n=5). After 2 months of oral administration, the mice were 101 weeks old.
In addition, water was orally administered to C57BL6 mice (92 weeks old) for 2 months ([Vehicle group], n=5). After 2 months of oral administration, the mice were 101 weeks old.
as §2, with “aged” for “young”, “the […].” for “[Vehicle group].”

[3] = test system: cochlear cells of the inner ear of wild-type mice; test: RNA-Seq and ChIP-Atlas analysis of cochlear cells of wild-type mice; conditions: wild-type C57BL6 mice, oral, 50 mg/kg/day, 2 weeks, Table 6
Protocol: Water-suspended Compound #5 was orally administered to C57BL6 mice (6 weeks old) at a dose of 50 mg/kg/day per kg of mouse weight for 2 weeks ([MA5 addition group], n=5).
In addition, water was orally administered to C57BL6 mice (6 weeks old) for […] ([Vehicle group], n=5).
RNA sequence (RNA-Seq) analysis was performed on cochlear cells of the inner ear of wild-type mice of [MA5 addition group] and [Vehicle group] described above, and genes whose expression levels changed (increased or decreased) in [MA5 addition group] as compared with [Vehicle group] were identified. Using the results of these gene names, integrated analysis with ChIP-Atlas was performed to investigate transcription factors possibly related to these genes.

[4] = test system: genomic DNA of the liver cells; test: Degree of methylation of genomic DNA of liver cells by the bisulfite method; conditions: oral, 50 mg/kg/day, 2 months
Protocol: as §1, with “n=5). The degree of methylation of the genomic DNA of the liver cells of the young mice was measured by the bisulfite method.” for “n=5).”
Water-suspended Compound #5 was orally administered to C57BL6 mice (92 weeks old) at a dose of 50 mg/kg/day per kg of mouse weight for 2 months ([MA5 addition group], n=5). The degree of methylation of the genomic DNA of the liver cells of the aged mice was measured by the bisulfite method. In Table 9 and Table 10, “Count” represents how many genes were related among genes related to the pathway. For example, in a pathway involving 20 genes, when there are three genes whose expression levels have been varied by administration of Compound #5, Count is 3, and “ %” thereof is a numerical value calculated by (3/20)×100.
“P-value” represents the p-value of the between-group comparison of pathways, and “Benjamini” represents the p-value calculated using the linear step-up method of Benjamini and Hochberg (1995) (see, for example, https://david.ncifcrf.gov/helps/functional_annotation.html for calculation method).

O=C(CC(C(=O)O)c1c[nH]c2ccccc12)c1ccc(F)cc1F (stereo not shown) [Compound #5, 4-(2,4-difluorophenyl)-2-(1H-indole-3-yl)-4-oxo-butanoic acid]
expression of FABP4 Gene (FABP4 Gene): higher
decrease in the running time on a treadmill ([1]; 10 mg/kg/day (low dose)): inhibited
decrease in the running time on a treadmill ([1]; 50 mg/kg/day (high dose)): inhibited
time to exhaustion ([1]; 10 mg/kg/day (low dose)): significantly improved
time to exhaustion ([1]; 50 mg/kg/day (high dose)): significantly improved
transcription factors related to genes whose expression increased (ChIP-Atlas) [2]: MYC, OCT4, SOX2, and NANOG related to reprogramming factors in the production of iPS cells, RXR (retinoid X receptor) and PPARA (peroxisome proliferator-activated receptor a) related to SIRT, and TRIM28
transcription factors related to genes whose expression increased (ChIP-Atlas) (liver cells of aged mice): FOXO1 known as longevity genes and PPARA
transcription factors related to the genes whose expression increased (ChIP-Atlas) [3]: SUZ^12 and EZH2
methylation of insulin resistance pathway ([4]; aged mice (92 weeks old)): inhibited
methylation of insulin signaling pathway ([4]; aged mice (92 weeks old)): inhibited
methylation of Insulin secretion pathway ([4]; young mice (12 weeks old)): inhibited
methylation of Signaling pathways regulating pluripotency of stem cells ([4]; young mice (12 weeks old)): inhibited
methylation of Wnt signaling pathway ([4]; young mice (12 weeks old)): inhibited
